{"source": "patent US12391657B2", "about": "“Small molecules that bind and/or modulate differentforms of tau oligomers” (The Board of Regents of the University of Texas System, priority 2019, dated 2025)", "key": {"[1]": {"molecular_target": "T1, recombinant tau oligomers (TauO) (Homo sapiens, UniProt P10636)", "T1 construct": "made in house", "T1 sequence (P10636 1-441 isoform P10636-8)": "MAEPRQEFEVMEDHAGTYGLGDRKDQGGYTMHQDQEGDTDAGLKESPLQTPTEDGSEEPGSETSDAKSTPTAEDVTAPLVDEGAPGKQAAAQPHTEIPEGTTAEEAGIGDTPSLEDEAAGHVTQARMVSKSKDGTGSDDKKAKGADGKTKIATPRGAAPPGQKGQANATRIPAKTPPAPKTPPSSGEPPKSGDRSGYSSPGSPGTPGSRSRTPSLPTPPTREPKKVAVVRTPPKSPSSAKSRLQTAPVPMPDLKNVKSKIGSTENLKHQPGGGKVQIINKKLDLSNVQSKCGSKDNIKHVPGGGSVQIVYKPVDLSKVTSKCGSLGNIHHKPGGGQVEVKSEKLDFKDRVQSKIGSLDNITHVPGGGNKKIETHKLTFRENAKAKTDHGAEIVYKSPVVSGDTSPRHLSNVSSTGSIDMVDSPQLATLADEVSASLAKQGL", "assay": "Dot blot of recombinant tau oligomers with and without compounds", "assay_type": "biochemical", "conditions": "curcumin", "method": "The dot blot assay was performed as previously described (Lasagna-Reeves, Castillo-Carranza et al. 2010), to detect tau oligomers in the absence and presence of small molecules. Briefly, 1.5 μl of each end-product reaction was applied onto nitrocellulose membranes and then blocked with 10% nonfat milk in TBS-T overnight at 4° C. Next day, membranes were probed with T22 (1:250) for immunoreactivity with tau oligomers and Tau5 (1:10000) for total tau, diluted in 5% nonfat milk for 1 hour at RT. Membranes were then washed three time with TBS-T and incubated with horseradish peroxidase-conjugated IgG anti-rabbit (1:10000) and anti-mouse (1:10000) secondary antibodies to detect, T22 and Tau5, respectively. Blots were then washed three times in TBS-T and exposed to ECL plus (GE Healthcare) was used for signal detection. Densitometric analysis of each band was quantified using Image J.\nCompounds were dissolved in ETOH 75%/DMSO (5:1) at a final concentration of 5 mM and diluted in 1× PBS or ddH2O for incubation or toxicity assay (final concentration 5 μM). […]\nDensitometric analysis of each band was quantified using Image J and analyzed by two-way ANOVA followed by Dunnett's multiple comparisons test, performed using GraphPad Prism 6.01."}, "[2]": {"conditions": "in vivo; cited from earlier work"}}, "note": "Entries after “also recorded” stand apart in the source; their conditions may differ."}
{"smiles": "COc1cc(/C=C/C(=O)CC(=O)/C=C/c2ccc(O)c(OC)c2)ccc1O", "note": "[curcumin]", "values": [{"measurement": "oligomeric tau level, dot blot", "setting": "[1]", "value": "decreased levels of oligomeric tau; also recorded: significant decrease in oligomers"}, {"measurement": "bioavailability", "setting": "[2]", "value": "low brain bioavailability following oral administration"}]}
